These are literature values, as cited in patent US20250231185A1, “Coronavirus T Cell Epitopes, Megapools and Uses Thereof” (La Jolla Institute for Immunology, priority 2021, published 2025).

One series relates to CD8+ T cells. The following applies: CD8R (D) megapool epitopes; dominant = recognized by 3 or more donors/different studies; cited from earlier work.
For the substance 1771 (QLMCQPILLL) [compound 1771], the Dominant entry is on record as “Yes (more dominant epitopes are defined by being recognized by 3 or more donors/different studies)”. As for 1772 (STFNVPMEK) [compound 1772], the Dominant entry is “Yes (more dominant epitopes are defined by being recognized by 3 or more donors/different studies)”.

For the substance 1773 (FLPRVFSAV) [compound 1773], the Dominant entry was “Yes (more dominant epitopes are defined by being recognized by 3 or more donors/different studies)”.

Turning to 1774 (FSAVGNICY) [compound 1774], the Dominant result is “Yes (more dominant epitopes are defined by being recognized by 3 or more donors/different studies)”. On to 1775 (SLRPDTRYVL) [compound 1775], for which the Dominant entry is “Yes (more dominant epitopes are defined by being recognized by 3 or more donors/different studies)”. For the substance 1776 (FLLNKEMYL) [compound 1776], the Dominant result is “Yes (more dominant epitopes are defined by being recognized by 3 or more donors/different studies)”.

For the substance 1777 (TSEDMLNPNY) [compound 1777], the Dominant result is “Yes (more dominant epitopes are defined by being recognized by 3 or more donors/different studies)”. Turning to 1778 (TPKYKFVRI) [compound 1778], the Dominant entry is listed as “Yes (more dominant epitopes are defined by being recognized by 3 or more donors/different studies)”.

With 1779 (VRIQPGQTF) [compound 1779], the Dominant entry is listed as “Yes (more dominant epitopes are defined by being recognized by 3 or more donors/different studies)”.

Take 1780 (FLNGSCGSV) [compound 1780]: the Dominant entry is reported as “Yes (more dominant epitopes are defined by being recognized by 3 or more donors/different studies)”. For 1781 (GTDLEGNFY) [compound 1781], the Dominant result is given as “Yes (more dominant epitopes are defined by being recognized by 3 or more donors/different studies)”.

In the case of 1782 (VLAWLYAAV) [compound 1782], the Dominant entry is “Yes (more dominant epitopes are defined by being recognized by 3 or more donors/different studies)”.

On to 1783 (FLNRFTTTL) [compound 1783], for which the Dominant result is given as “Yes (more dominant epitopes are defined by being recognized by 3 or more donors/different studies)”. As for 1784 (SAFAMMFVK) [compound 1784], the Dominant result is given as “Yes (more dominant epitopes are defined by being recognized by 3 or more donors/different studies)”. 1785 (FLLPSLATV) [compound 1785]: the Dominant result was “Yes (more dominant epitopes are defined by being recognized by 3 or more donors/different studies)”. For 1786 (MPASWVMRI) [compound 1786], the Dominant result is “Yes (more dominant epitopes are defined by being recognized by 3 or more donors/different studies)”. As to 1787 (KLKDCVMYA) [compound 1787], the Dominant entry is recorded as “Yes (more dominant epitopes are defined by being recognized by 3 or more donors/different studies)”. As for 1788 (SMWALIISV) [compound 1788], the Dominant entry is given as “Yes (more dominant epitopes are defined by being recognized by 3 or more donors/different studies)”.

1790 (SEFSSLPSY) [compound 1790]: the Dominant entry is “Yes (more dominant epitopes are defined by being recognized by 3 or more donors/different studies)”. Consider 1791 (NTCDGTTFTY) [compound 1791], for which the Dominant result is on record as “Yes (more dominant epitopes are defined by being recognized by 3 or more donors/different studies)”.

As to 1792 (FTYASALWEI) [compound 1792], the Dominant result was “Yes (more dominant epitopes are defined by being recognized by 3 or more donors/different studies)”. As for 1795 (ALRANSAVK) [compound 1795], the Dominant entry is recorded as “Yes (more dominant epitopes are defined by being recognized by 3 or more donors/different studies)”. In the case of 1797 (CTDDNALAYY) [compound 1797], the Dominant entry is “Yes (more dominant epitopes are defined by being recognized by 3 or more donors/different studies)”. As for 1798 (YTELEPPCRF) [compound 1798], the Dominant result is recorded as “Yes (more dominant epitopes are defined by being recognized by 3 or more donors/different studies)”. With 1799 (VTDTPKGPK) [compound 1799], the Dominant entry is on record as “Yes (more dominant epitopes are defined by being recognized by 3 or more donors/different studies)”. For the substance 1800 (MDLFMRIFTI) [compound 1800], the Dominant entry is reported as “Yes (more dominant epitopes are defined by being recognized by 3 or more donors/different studies)”.

Turning to 1801 (FVRATATIPI) [compound 1801], the Dominant entry was “Yes (more dominant epitopes are defined by being recognized by 3 or more donors/different studies)”. For 1802 (IPIQASLPF) [compound 1802], the Dominant result was “Yes (more dominant epitopes are defined by being recognized by 3 or more donors/different studies)”.

Consider 1803 (IVGVALLAVF) [compound 1803], for which the Dominant result is “Yes (more dominant epitopes are defined by being recognized by 3 or more donors/different studies)”. For the substance 1804 (ALSKGVHFV) [compound 1804], the Dominant result is reported as “Yes (more dominant epitopes are defined by being recognized by 3 or more donors/different studies)”.

Turning to 1805 (YLYALVYFL) [compound 1805], the Dominant entry is recorded as “Yes (more dominant epitopes are defined by being recognized by 3 or more donors/different studies)”. In the case of 1806 (VYFLQSINF) [compound 1806], the Dominant result is “Yes (more dominant epitopes are defined by being recognized by 3 or more donors/different studies)”. On to 1807 (LLYDANYFL) [compound 1807], for which the Dominant result is “Yes (more dominant epitopes are defined by being recognized by 3 or more donors/different studies)”. Consider 1808 (FTSDYYQLY) [compound 1808], for which the Dominant result is on record as “Yes (more dominant epitopes are defined by being recognized by 3 or more donors/different studies)”.

For 1809 (YYQLYSTQL) [compound 1809], the Dominant entry is “Yes (more dominant epitopes are defined by being recognized by 3 or more donors/different studies)”. As to 1810 (HLVDFQVTI) [compound 1810], the Dominant entry is reported as “Yes (more dominant epitopes are defined by being recognized by 3 or more donors/different studies)”. Consider 1811 (QLRARSVSPK) [compound 1811], for which the Dominant result is “Yes (more dominant epitopes are defined by being recognized by 3 or more donors/different studies)”. Consider 1812 (RARSVSPKL) [compound 1812], for which the Dominant entry is listed as “Yes (more dominant epitopes are defined by being recognized by 3 or more donors/different studies)”.

In the case of 1813 (KLFIRQEEV) [compound 1813], the Dominant result was “Yes (more dominant epitopes are defined by being recognized by 3 or more donors/different studies)”. In the case of 1814 (VFITLCFTLK) [compound 1814], the Dominant result is “Yes (more dominant epitopes are defined by being recognized by 3 or more donors/different studies)”. For 1815 (IMLIIFWFSL) [compound 1815], the Dominant entry is recorded as “Yes (more dominant epitopes are defined by being recognized by 3 or more donors/different studies)”.

1816 (IQYIDIGNY) [compound 1816]: the Dominant result is “Yes (more dominant epitopes are defined by being recognized by 3 or more donors/different studies)”. On to 1817 (KLGSLVVRC) [compound 1817], for which the Dominant result is listed as “Yes (more dominant epitopes are defined by being recognized by 3 or more donors/different studies)”.

1818 (LEYHDVRVVL) [compound 1818]: the Dominant result is “Yes (more dominant epitopes are defined by being recognized by 3 or more donors/different studies)”.

Still in this series, the particulars now being: CD8RE megapool peptides (non-spike SARS-CoV-2 antigens); dominant epitope Yes/No; cited from earlier work.
Turning to 2901 (SLVKPSFYV) [compound 2901], the Dominant entry is reported as “Yes (more dominant epitopes are defined by being recognized by 3 or more donors/different studies)”. 2902 (YVYSRVKNL) [compound 2902]: the Dominant result is recorded as “Yes (more dominant epitopes are defined by being recognized by 3 or more donors/different studies)”.

Turning to 2903 (GTITVEELK) [compound 2903], the Dominant entry is recorded as “Yes (more dominant epitopes are defined by being recognized by 3 or more donors/different studies)”.

2904 (KLLEQWNLV) [compound 2904]: the Dominant entry is reported as “Yes (more dominant epitopes are defined by being recognized by 3 or more donors/different studies)”. Regarding 2905 (FLFLTWICL) [compound 2905], the Dominant entry was “Yes (more dominant epitopes are defined by being recognized by 3 or more donors/different studies)”. Consider 2906 (NRFLYIIKL) [compound 2906], for which the Dominant result was “Yes (more dominant epitopes are defined by being recognized by 3 or more donors/different studies)”.

For 2907 (TLACFVLAAV) [compound 2907], the Dominant result was “Yes (more dominant epitopes are defined by being recognized by 3 or more donors/different studies)”. On to 2909 (RLFARTRSMW) [compound 2909], for which the Dominant result is on record as “Yes (more dominant epitopes are defined by being recognized by 3 or more donors/different studies)”.

Regarding 2910 (SMWSFNPET) [compound 2910], the Dominant entry is “Yes (more dominant epitopes are defined by being recognized by 3 or more donors/different studies)”.

2911 (SELVIGAVIL) [compound 2911]: the Dominant entry is “Yes (more dominant epitopes are defined by being recognized by 3 or more donors/different studies)”. For the substance 2912 (AVILRGHLR) [compound 2912], the Dominant entry is recorded as “Yes (more dominant epitopes are defined by being recognized by 3 or more donors/different studies)”. Consider 2913 (ATSRTLSYY) [compound 2913], for which the Dominant entry was “Yes (more dominant epitopes are defined by being recognized by 3 or more donors/different studies)”. Take 2914 (ATSRTLSYYK) [compound 2914]: the Dominant entry is given as “Yes (more dominant epitopes are defined by being recognized by 3 or more donors/different studies)”. Regarding 2915 (RYRIGNYKL) [compound 2915], the Dominant result is “Yes (more dominant epitopes are defined by being recognized by 3 or more donors/different studies)”. Regarding 2917 (NTASWFTAL) [compound 2917], the Dominant entry is on record as “Yes (more dominant epitopes are defined by being recognized by 3 or more donors/different studies)”. Regarding 2918 (KFPRGQGVPI) [compound 2918], the Dominant entry was “Yes (more dominant epitopes are defined by being recognized by 3 or more donors/different studies)”.
